# Data from patent US20260053767A1, “Hepatoprotective Compositions And Methods” (Jemyll, Ltd., priority 2022, published 2026).
# Entries after “also recorded” stand apart in the source; their conditions may differ.
# Tests used:
# Type in all cases: cell-based
# SIRT1 = SIRT1 levels in liver cells; conditions: AML-12 liver cells, 6 hours; p=0.127
# From the text: (§1) To that end, the inventors used endothelial cells (EOMA cells) and liver cells (AML-12 cells) in vitro and quantified various markers in response to exposure of the cells to environmental challenge in the presence and absence of DDA at low concentrations. Unless indicated otherwise, the DDA concentration in the in vitro experiments was 5 mcg per microliter. More specifically, the inventors measured p-H2AX protein levels as a marker for DNA damage, PGC-1α protein levels as a marker for mitochondrial biogenesis, NAMPT enzyme levels as a marker for potential for NAD+ production, and total antioxidant capacity as a marker of cellular health. In addition, the inventors also measured global SIRT activity as a gauge of activity for all SIRT enzymes, and in particular SIRT1 enzyme levels as markers for autophagy and various beneficial processes associated with a caloric restricted diet, and SIRT3 levels as markers for mitochondrial function and longevity.
# (§2) In still further experiments, the inventors also investigated whether or not DDDA could have stimulatory effects on selected SIRT proteins. More specifically, the inventors tested the effects of DDDA on SIRT3 and SIRT1, and exemplary results are shown in FIG. 9 and FIG. 10, respectively. […] N=5-6 plates per treatment. […] Beyond this trend, however, no other observations were evident. N=5-6 plates per treatment.
# [1] = test system: primary human hepatocytes; assay: In vitro citrate uptake; conditions: citrate 150 μM; for citrate uptake: vs untreated cells
# Method: (§3) Isolation of human primary hepatocytes: Tissue obtained during percutaneous liver biopsy, was diced (<3 mm) and washed in HBSS to remove excess blood. Tissue was then transferred to a tube containing pre-warmed EGTA buffer (HBSS, 0.5 mM EGTA, 0.5% fatty acid free bovine serum albumin (BSA)) and agitated (100 rpm) in a water bath with shaking bed for 10 min, 37° C. After three washes, to remove the remaining blood and EGTA, the tissue was placed in pre-warmed digestion buffer (HBSS, 0.05% collagenase IV, 0.5% fatty acid free BSA, 10 mM CaC12) and agitated (100 rpm) in a water bath with shaking bed for 30 min, 37° C. The digested tissue was filtered through 100 μm cell strainer while the remaining tissue was again digested in fresh digestion buffer (20). Cell suspensions were pooled and centrifuged at 80 g for 5 min, 4° C. and the supernatant discarded. Cells were grown until confluent and used for citrate uptake analysis.
# In vitro Citrate Uptake: Primary human hepatocytes were incubated with or without Dodecanedioic acid, sodium salt (0.1-0.25-0.5-1-1.5% w/vol) for 30 minutes. Following the incubation step, citrate was added at a final concentration of 150 μM for 40 minutes. At the end of the stimulation citrate uptake was assessed by a commercial Citrate Assay Kit and data analyzed with Varioskan LUX multimode microplate reader.
# [2] = test system: liver cells (AML-12 cells); assay: DNA damage (p-H2AX protein levels) in liver cells; conditions: AML-12 liver cells, 6 hours; p=0.068
# From the text: as §1
# Finally, the inventors also investigated whether or not DDDA could have a protective effect against peroxide induced DNA damage, and exemplary results are shown in FIG. 11. […] N=5-6 plates per treatment.
# [3] = test system: human primary hepatocytes; assay: Nile red staining of lipid droplets; conditions: C12 1% with palmitic acid 0.4 mM, vs palmitic acid alone, listed as C12
# Method: Nile Red: Cells were cultured for 24 hours in DMEM with 10% FBS. Prior stimulation, cells were incubated in serum free DMEM overnight. […] After the stimulation, cells were stained with Nile Red (100 ng/ml) for 45 minutes. Stained cells were used for immunofluorescence to quantify the deposition of lipid droplets. Nuclear staining was performed with DAPI and images of lipid droplets were taken using confocal microscope Nikon A1 RHD25 and NIS-Elements imaging software was used to analyze images.
# C12 decrease de novo lipogenesis and an increase in fatty acid oxidation in vitro and in vivo: To test the hypothesis that C12 could affect de novo lipogenesis and fatty acid beta-oxidation, human primary hepatocytes were stimulated with palmitic acids (0.4 mM) in the presence or absence of C12 1% (v/w). […] Similar results were also observed in our in vivo experiments. […] Data from in vivo study 1 and 2 were pooled together.
# NAMPT = NAMPT enzyme levels in liver cells; conditions: AML-12 liver cells
# From the text: as §1
# To evaluate the effect of DDDA on energy metabolism, and particularly on NAD+ synthesis, the inventors also tested the effect of DDDA on NAMPT in liver cells.
# SIRT3 = SIRT3 protein levels in liver cells; conditions: AML-12 liver cells, 24 hours; p=0.028
# From the text: as §1, §2
# [4] = test system: primary human hepatocytes; assay: In vitro palmitic acid stimulation, gene expression by quantitative real-time PCR
# Method: Total RNA from human primary hepatocytes was extracted using the RNeasy Plus Mini Kit according to the indications provided by the company. A small aliquot of total RNA obtained (3 μl) was subjected to qualitative and quantitative control by using the microdrop. The qualitative and quantitative assessment of the individual samples was determined using a dedicated software. The total RNA was reverse transcribed into cDNA by using iScript RT. SYBR Green gene expression assays were performed according to the manufacturer's instruction using the iQTMSYBR Green Supermix and the CFX96 Touch Real-Time PCR Detection System. For this purpose, the following pairs of primer were used: solute carrier family 13 member 5 (SLC13A5) (forward 5′ […] 3′ (SEQ ID NO:1) and reverse 5′ […] 3′ (SEQ ID NO:2)), Diacylglycerol O-Acyltransferase 1 (DGAT1) (forward 5′ […] 3′ (SEQ ID NO:3) and reverse 5′ […] 3′ (SEQ ID NO:4)), Fatty Acid Synthase (FASN) (forward 5′ […] 3′ (SEQ ID NO:5) and reverse 5′ […] 3′ (SEQ ID NO:6)), carnitine palmitoyltransferase 1A (CPT1A) (forward 5′ […] 3′ (SEQ ID NO:7) and reverse 5′ […] 3′ (SEQ ID NO:8)) and Acetyl-CoA carboxylase (ACC1) (forward 5′ […] 3′ (SEQ ID NO:9) and reverse 5′ […] 3′ (SEQ ID NO:10)). mRNA expression levels were normalized to B2-microglobulin (forward 5′[…] 3′ (SEQ ID NO:11); and reverse 5′[…] 3′ (SEQ ID NO:12)) and quantification of relative gene expression, presented as percentage of the relevant baseline, was calculated using the 2-ACT (comparative threshold) method.
# as §3
# At the end of the stimulation de novo lipogenesis, fatty acid beta-oxidation and SLC13A5 gene expression were assessed by Quantitative Real-Time PCR Analysis.
# [5] = primary human hepatocytes, C12 1% (v/w) with palmitic acid 0.4 mM, vs palmitic acid alone
structure (smiles),measurement,setting,value
"O=C(O)CCCCCCCCCCC(=O)O [DDDA, dodecanedioic acid]",SIRT1 levels,SIRT1,trended upwards
same,citrate uptake,[1]; C12 1% (v/w),significant decrease
same,citrate uptake,[1]; C12 1.5% (v/w),significant decrease
same,citrate uptake (figure legend),[1]; C12 0.1-1.5% v/w,inhibits citrate uptake
same,peroxide induced DNA damage,[2],trend towards decreased DNA damage
same,deposition of lipid droplets (Nile red),[3],decreased deposition of lipid droplets; also recorded: reduces lipid droplets accumulation
same,NAMPT enzyme levels,"NAMPT; 6 hours, p=0.001",significantly increased
same,NAMPT enzyme levels,"NAMPT; 24 hours, pattern relative to 6 hours",paradoxically reversed
same,SIRT3 protein levels,SIRT3,significantly increased
same,gene expression of citrate transporter SLC13A5,"[4]; human hepatocytes, C12 1% (v/w) with palmitic acid 0.4 mM, vs palmitic acid alone, listed as C12",significant decrease; also recorded: reducing citrate transporter SLC13A5
same,DNL in primary hepatocytes (figure legend),"[4]; palmitic acid 0.4 mM, C12 1%",reduces
same,ACC1 (de novo lipogenesis enzyme),[4]; [5],significant reduction
same,CPT1A (fatty acid beta-oxidation enzyme),[4]; [5],significant increase
same,DGAT (de novo lipogenesis enzyme),[4]; [5],significant reduction
same,FASN (de novo lipogenesis enzyme),[4]; [5],significant reduction
